This experiment concerns Mycobacterium tuberculosis H37Rv growth inhibition, no glycerol. Put plainly: Mycobacterium tuberculosis H37Rv growth inhibition, no glycerol, confirmatory dose response (AID 449764).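 For all read-outs here: growth read after 7 days of incubation.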 The note with it: for IC90: measured here: IC90 growth inhibition.

Take `CCOC(=O)c1c(NC(=O)CCl)sc(CN(C)C)c1-c1ccccc1`: the IC50 is 2.99 µM and the IC90 was found to be 10.7 µM.

In the case of `O=c1oc2ccccc2c(O)c1/C=C1\C=Nc2ccccc21`, the IC50 was 38.8 µM and the IC90 amounted to 64.6 µM.

For `Cc1cc(C)c2nc(-c3ccncc3)cc(C(=O)N3CCN(Cc4ccccc4Cl)CC3)c2c1`, the IC50 was 31.3 µM and the IC90 is 43.7 µM.

With `Cc1c(Cl)cccc1-c1ccc(CNCc2ccccn2)o1`, the IC50 is 4.66 µM and the IC90 was 13.6 µM.

Take `COc1ccc(NC(=O)NC(C)C2CC3CCC2C3)cc1` (centres undefined): the IC50 was 25.3 µM and the IC90 came to 43.1 µM.

`CC1=NNC(=O)/C1=C\c1cn(-c2ccccc2)nc1-c1ccc(Cl)cc1`: the IC50 was 45.2 µM and the IC90 is 48.8 µM.

`CCN(Cc1ccncc1)Cc1nc(-c2ccc(C(=O)OC)cc2)no1`: the IC50 was 34.2 µM and the IC90 came to 53.6 µM.

On to `CCc1ccc(-c2nn(-c3ccccc3)cc2CSC(=N)N)cc1`, for which the IC50 was 16.5 µM and the IC90 was 20.4 µM.

With `O=C(CCl)NN=C(c1ccccc1)c1ccccc1`, the IC50 was 1.32 µM and the IC90 came out at 2.09 µM.

For the compound `COc1ccc(CN2CCN(C(c3ccc(F)cc3)c3ccc(F)cc3)CC2)c(OC)c1OC`, the IC50 was 22.9 µM and the IC90 is 40.5 µM.

Take `CCOC(=O)/C(=N/Nc1ccc(OC)cc1)N1CCCc2ccccc21`: the IC50 was 95.3 µM and the IC90 is above 100 µM.

For `O=C(Nc1cccc(Cl)c1)N1CCN(C/C=C/c2ccccc2)CC1`, the IC50 is 35 µM and the concentration for an effect of 90% (IC90) came to 51.3 µM.

For the compound `CCCc1cc(-c2nc(-c3ccc(Br)cc3)cs2)ccn1`, the IC50 was 16.4 µM and the IC90 turned out to be 24.6 µM.

In the case of `CCOc1cc(CNCCCN2CCOCC2)cc(Br)c1OCC(=O)Nc1cccc(C(F)(F)F)c1`, the IC50 was 23.3 µM and the IC90 turned out to be 32 µM.

With `CC1(C)Cc2c(cnn2-c2ccccc2)-c2c1c1ccccc1n2CC(O)CCl` (centres undefined), the IC50 was 95.4 µM and the IC90 is above 100 µM.

Turning to `COc1ccccc1-c1cc(C(=O)NC2CCN(C)CC2)c2ccc(Cl)c(C)c2n1`, the IC50 is 83.5 µM and the IC90 is above 100 µM.

For the compound `CC(C)(C)OC(=O)NCCCCCc1nnc(SCc2ccc(F)cc2)o1`, the IC50 is 75 µM and the IC90 is above 100 µM.

Regarding `c1ccc(/N=C2\N=C(Nc3ccccn3)c3ccccc32)nc1`, the IC50 is 2.05 µM and the IC90 was determined as 3.02 µM.

Regarding `CCOc1ccc(Nc2cc(C)nc(-n3nc(C)cc3C)n2)cc1`, the IC50 is 2.27 µM and the IC90 was found to be 4.89 µM.

Take `c1ccc(CCN2CCN(c3ncnc4c3cnn4-c3ccccc3)CC2)cc1`: the IC50 is 47.7 µM and the IC90 amounted to 91.1 µM.

On to `C[C@@H]1CN([C@H](C)CO)C(=O)c2cc(NC(=O)Nc3ccc(C(F)(F)F)cc3)ccc2O[C@H]1CN(C)S(=O)(=O)c1cccs1`, for which the IC50 was 21.7 µM and the IC90 was determined as 24.1 µM.

With `COc1cc2ccccc2cc1C(=O)Nc1ccc(Cc2ccncc2)cc1`, the IC50 was 18.9 µM and the IC90 was 27.3 µM.

Turning to `O=C(c1cc2nc(-c3ccc(F)cc3)cc(C(F)(F)F)n2n1)N1CCCCC1c1cccnc1` (centres undefined), the IC50 was 20.7 µM and the IC90 was 29.2 µM.

`CCOC(=O)CN(C#N)c1nc(N(C)C)nc(N(C)C)n1`: the IC50 is 12.8 µM and the concentration for an effect of 90% (IC90) was determined as 14.6 µM.

Regarding `Cc1ccc(C(c2nnnn2Cc2cccs2)N2CCN(Cc3ccc4c(c3)OCO4)CC2)cc1` (centres undefined), the IC50 was 24.3 µM and the IC90 was 38 µM.

As to `Cc1cc(C)c2c(CN3CCN(Cc4ccccc4)CC3)cc(=O)oc2c1C`, the IC50 was 48.1 µM and the IC90 turned out to be 55.2 µM.

Regarding `COc1ccc(NCc2nc3ccccc3n2CCOc2ccccc2)cc1`, the IC50 was 69.5 µM and the concentration for an effect of 90% (IC90) stood at 88.6 µM.

Turning to `O=c1oc2ccccc2c2c1nc(C(F)(F)F)n2-c1ccccc1`, the IC50 was 13.9 µM and the IC90 is 23.8 µM.

Take `O=C(CSC1=Nc2ccccc2C2=NC(c3ccccc3)C(=O)N12)NC1CCCCC1` (centres undefined): the IC50 was 1.03 µM and the IC90 was 1.73 µM.

For `CC[C@@H](C)[C@H](CN[C@H](CNC)C(C)C)NC[C@@H](C)c1ccc(CC(C)C)cc1`, the IC50 was 13.3 µM and the IC90 worked out at 15.4 µM.

On to `O=C(c1ccccc1)C1CN(Cc2ccccc2)CCC1(O)c1ccccc1` (centres undefined), for which the IC50 was 16.3 µM and the IC90 was 21.8 µM.

Take `CCNc1nc(NCC)nc(N/N=C/c2ccc([N+](=O)[O-])o2)n1`: the IC50 was 1.3 µM and the IC90 was found to be 1.7 µM.

Turning to `Nc1ccc(N=Nc2ccccc2)c2cccnc12`, the IC50 was 34.7 µM and the concentration for an effect of 90% (IC90) came to 64.2 µM.

Consider `O=C(Nc1cccc(-c2csc(Nc3ccc(Cl)cc3)n2)c1)c1cccc(C(F)(F)F)c1`, for which the IC50 was 43.8 µM and the IC90 is above 100 µM.

Turning to `O=C(CSc1ccc(Cl)cc1)N1CCC(c2nc3ccccc3s2)CC1`, the IC50 was 53.8 µM and the IC90 was determined as 68.3 µM.

For `O=C1CC(/C=C/c2ccc(Cl)cc2)=Nc2ccccc2N1`, the IC50 was 12.2 µM and the IC90 was determined as 14.2 µM.

For the compound `CCCCNC(=S)N/N=C/c1cccc(OCC)c1O`, the IC50 is 10.8 µM and the IC90 came out at 11.9 µM.

With `COc1cc2nc(N3CCN(c4cc(C)ccc4C)CC3)nc(N)c2cc1OC`, the IC50 was 15.3 µM and the concentration for an effect of 90% (IC90) came out at 18.7 µM.

In the case of `O=[N+]([O-])c1cc(C=Nc2ccc3ccccc3c2)ccc1Br`, the IC50 is 34.5 µM and the IC90 came to 44.5 µM.

For the compound `CC(=O)c1ccc(Sc2nnnn2-c2ccccc2)c([N+](=O)[O-])c1`, the IC50 is 19.8 µM and the IC90 was 31.8 µM.

As to `Cc1cc(=O)n2[nH]c(Nc3cccc(Cl)c3)nc2n1`, the IC50 was 29.1 µM and the IC90 stood at 68 µM.

`N#C/C(=C/c1ccc(Sc2nc3ccccc3[nH]2)o1)c1cccc(Br)c1`: the IC50 is 57.9 µM and the IC90 is above 100 µM.

As to `COc1cccc(/C=N/Nc2nc(Nc3ccccc3)nc(-n3nc(C)cc3C)n2)c1O`, the IC50 was below 0.2 µM and the IC90 stood at 0.25 µM.

With `COc1ccc(C(=O)C2CCCN(C3CSCCSC3)C2)c(C)c1` (centres undefined), the IC50 was 33.5 µM and the IC90 is 44.9 µM.

With `Cc1ccc2c(c1)C1C[N+](C)(CC(=O)c3ccc(Cl)cc3Cl)CCC1N2C(=O)c1ccc(F)cc1` (centres undefined), the IC50 is 32.2 µM and the IC90 was 41 µM.

As for `CSC(=S)NCc1cccnc1`, the IC50 is 29.1 µM and the IC90 came out at 41.9 µM.

Take `CC1=CC(=O)c2c(O)ccc(O)c2C1=O`: the IC50 is 5.64 µM and the IC90 worked out at 7.87 µM.

For `Nc1c(C(=O)OCC2CCCO2)c2nc3ccccc3nc2n1C1CCCC1` (centres undefined), the concentration for half-maximal inhibition (IC50) is 60.7 µM and the IC90 was determined as 86.8 µM.

Turning to `CN(C)C(=O)c1ccc(NC(=O)COC(=O)c2cc3c(s2)CCCCC3)cc1`, the IC50 was 91.6 µM and the IC90 is above 100 µM.

Regarding `O=C1CCCC2=C1C1c3ccccc3C(=O)N1c1ccc(C(=O)c3ccccc3)cc1N2` (centres undefined), the IC50 was 22 µM and the IC90 came to 24.4 µM.

Take `Cc1cc(Cl)ccc1NNC(=O)CCc1ccccc1`: the IC50 is 84.1 µM and the IC90 is above 100 µM.

On to `CCOC(=O)c1ccc(NC2=CC(=O)C(=O)c3ccccc32)cc1`, for which the IC50 is 37.7 µM and the IC90 is 48.3 µM.

`CC1CN(c2ccc([N+](=O)[O-])c(NCCOc3ccc(Cl)cc3)c2)CC(C)N1` (centres undefined): the IC50 is 15.5 µM and the IC90 came out at 31.2 µM.

For the compound `CCOC(=O)CSCC(=O)N1CCC(Cc2ccccc2)CC1`, the IC50 is 9.38 µM and the IC90 turned out to be 16.2 µM.

For the compound `COC(=O)COc1ccc(-c2nn(C)c(=O)c3ccccc23)cc1`, the IC50 was 13.1 µM and the IC90 came out at 58.5 µM.

As for `CCNc1nc(Nc2ccc(C)c(Cl)c2)c2cnn(C)c2n1`, the IC50 was 70 µM and the IC90 was above 100 µM.

As for `CN(Cc1ccc(Br)cc1)C(=O)CCN1C(=O)c2cccc([N+](=O)[O-])c2C1=O`, the IC50 was 97.3 µM and the IC90 was above 100 µM.

For the compound `CCOC(=O)C(C)Sc1ncnc2c1nnn2-c1ccc(F)cc1` (centres undefined), the IC50 is 2.61 µM and the IC90 stood at 9.68 µM.

On to `COc1ccc(-c2ccc(C#N)c(SCC(=O)OCc3ccccc3)n2)cc1OC`, for which the IC50 was 23.9 µM and the IC90 was 26.8 µM.

Turning to `O=C1c2cccc3c([N+](=O)[O-])ccc(c23)C(=O)N1O`, the IC50 was 11.9 µM and the IC90 was determined as 13.5 µM.

Consider `O=C(NCCC1=CCCCC1)c1c(O)nc2sccn2c1=O`, for which the IC50 was 66 µM and the IC90 is above 100 µM.

For the compound `CC(Oc1cc2oc(=O)c3c(c2cc1Cl)CCCC3)C(=O)NCc1ccccn1` (centres undefined), the IC90 was above 100 µM.

`COc1cc(C(=O)/C=C/c2cccnc2)c([N+](=O)[O-])cc1OC`: the half-inhibitory concentration (IC50) is 17.5 µM and the IC90 was found to be 26.2 µM.

Regarding `COc1cccc(NC(=O)C2CCN(Cc3cnn(-c4ccccc4)c3-n3cccc3)CC2)c1`, the IC50 was 54.9 µM and the IC90 was found to be 90 µM.

`Cc1ccc(-c2noc(-c3cc4ccccc4oc3=O)n2)cc1`: the IC50 is 11.4 µM and the IC90 was above 100 µM.

`CN(C)N=Nc1nc[nH]c1C(N)=O`: the IC50 is 5.04 µM and the IC90 is 8.38 µM.

As for `CC1(C)OC(=O)C(=Cc2ccc[nH]2)C(=O)O1`, the IC50 is below 0.2 µM and the IC90 is above 100 µM.

For the compound `COc1ccc(CCNc2cc(-c3ccccc3)nc3ncnn23)cc1`, the IC50 is below 0.2 µM and the IC90 was 27.3 µM.

Regarding `COc1cc2c(cc1OC)C1(Nc3c-2c(-c2ccccc2)nn3-c2ccccc2)C(=O)Nc2ccccc21` (centres undefined), the IC50 was 80.9 µM and the IC90 is above 100 µM.

In the case of `C[C@@H]1CCCCCCCCC(=O)OCCN[C@H](C)CCCCCCCCC(=O)OCCN[C@H](C)CCCCCCCCC(=O)OCCN1`, the IC50 was 31.8 µM and the IC90 stood at 43.3 µM.

In turn, `Cc1ccc(NC(=O)c2sccc2-n2cccc2)c(C)c1` had an IC90 above 100 µM.

`O=c1oc2ccccc2c(Nc2ccccc2O)c1[N+](=O)[O-]`: the IC50 is 9.46 µM and the IC90 stood at 13.9 µM.

`CCSc1ncc(/C=N/Nc2ccccc2)n1C`: the IC50 was 82.6 µM and the IC90 is above 100 µM.

(Values after PubChem BioAssay AID449764 (Southern Research Specialized Biocontainment Screening …, 2010).)
